GI50 and TGI data for ten molecules are collected here from PubChem BioAssay (NCI).

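Results reflect a 48-hour exposure of cells in 96-well plates to compound at five concentrations. GI50 = concentration required for 50% inhibition of growth. TGI is the concentration that stops growth completely.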

Among the test systems are UACC-257 melanoma; SN12C renal; OVCAR-8 ovarian; SR leukemia; K-562 leukemia; SW-620 colon; UO-31 renal; HCC-2998 colon; SF-268 CNS; UACC-62 melanoma.
Assay in all cases: growth of human tumour cells (NCI), 48 h

`O=C1/C(=C/c2ccc(Br)cc2)C=C(c2ccccc2)N1CCc1ccccc1`: the GI50 with UACC-257 melanoma is 2820 nM; in the test on SN12C renal it was 2150 nM; in the test on OVCAR-8 ovarian it was 1040 nM; in the test on SR leukemia, 11600 nM; in the test on K-562 leukemia it was 2630 nM; in the test with SW-620 colon it was 5.34 µM. Moreover, the GI50 in the test on UO-31 renal is 2.82 µM; in the test with HCC-2998 colon, 7.52 µM; in the test on SF-268 CNS it was 2270 nM. Moreover, the TGI is 18.7 µM in the test with UACC-257 melanoma; 20.4 µM in the test with SN12C renal; 10 µM in the test on OVCAR-8 ovarian; > 100 µM in the test with SR leukemia; 20.5 µM in the test on K-562 leukemia; > 100 µM with SW-620 colon. Further, the TGI in the test with UO-31 renal is 19.8 µM; in the test with HCC-2998 colon, > 100 µM; in the test on SF-268 CNS, 16.3 µM.
Take `O=C(NCCOCCOCCNc1cccc2c1C(=O)N(C1CCCNC1=O)C2=O)c1cc2c(o1)C(=O)c1ccccc1C2=O` (stereo unspecified): the GI50 is 1450 nM in the test with UACC-257 melanoma; 1520 nM with SN12C renal; 2310 nM in the test on OVCAR-8 ovarian; 2630 nM with SR leukemia; 2750 nM in the test on K-562 leukemia; 2.35 µM with SW-620 colon. Moreover, the GI50 in the test on UACC-62 melanoma was 1370 nM; in the test with UO-31 renal it was 2.03 µM; in the test with HCC-2998 colon, 2.01 µM; with SF-268 CNS, 2390 nM. Moreover, the TGI was 2.89 µM in the test with UACC-257 melanoma; 2.96 µM with SN12C renal; 10.6 µM in the test with OVCAR-8 ovarian; > 100 µM with SR leukemia; 11.1 µM in the test with K-562 leukemia; 7.52 µM with SW-620 colon. Further, the TGI turned out to be 2.99 µM with UACC-62 melanoma, 4.9 µM in the test on UO-31 renal, 4.02 µM with HCC-2998 colon and 6.35 µM in the test with SF-268 CNS.
`CC1(C)CC(/C=C2/OC(=O)c3ccccc32)=C(C#N)C(=O)O1`: the TGI with UACC-257 melanoma, in the test with SN12C renal, in the test on OVCAR-8 ovarian, in the test with SR leukemia, in the test with K-562 leukemia and in the test on SW-620 colon was > 100 µM throughout. The TGI in the test with UACC-62 melanoma, with UO-31 renal, in the test with HCC-2998 colon and in the test on SF-268 CNS was > 100 µM each time.
`O=C(CN1CCOCC1)Nc1ccc(Cn2nnc3c2C(=O)c2nnn(Cc4ccc(NC(=O)CN5CCOCC5)cc4)c2C3=O)cc1`: the GI50 is 253 nM with UACC-257 melanoma; 259 nM in the test on SN12C renal; 358 nM in the test on OVCAR-8 ovarian; 516 nM in the test with SR leukemia; 745 nM with K-562 leukemia; 0.366 µM in the test with SW-620 colon. Moreover, the GI50 in the test with UACC-62 melanoma is 463 nM; with UO-31 renal, 26 µM; in the test on HCC-2998 colon it was 0.348 µM; with SF-268 CNS, 334 nM. The TGI in the test on UACC-257 melanoma was 0.624 µM; with SN12C renal, 0.733 µM; with OVCAR-8 ovarian, 1.33 µM; with SR leukemia, 3.97 µM; with K-562 leukemia it was > 100 µM; with SW-620 colon it was 1.75 µM. Besides, the TGI was 1.83 µM in the test on UACC-62 melanoma, > 100 µM with UO-31 renal, 1.34 µM in the test on HCC-2998 colon and 1.94 µM in the test with SF-268 CNS.
For the molecule `O=C1/C(=C/c2ccc(Cl)cc2Cl)N=C(c2ccccc2)N1Cc1ccco1`, the GI50 with UACC-257 melanoma was 36500 nM; in the test on SN12C renal it was 18700 nM; in the test with OVCAR-8 ovarian, 20500 nM; in the test on SR leukemia it was > 100000 nM; with K-562 leukemia it was 41100 nM; in the test with SW-620 colon, 46 µM. Besides, the GI50 in the test with UACC-62 melanoma was 18100 nM; in the test on UO-31 renal it was 23.9 µM; in the test on HCC-2998 colon, 26.7 µM; in the test on SF-268 CNS, 20200 nM. In addition, the TGI was > 100 µM in the test on UACC-257 melanoma; 36.1 µM in the test with SN12C renal; 48.4 µM in the test with OVCAR-8 ovarian; > 100 µM in the test with SR leukemia; > 100 µM in the test on K-562 leukemia; > 100 µM with SW-620 colon. The TGI was 41.6 µM with UACC-62 melanoma, > 100 µM in the test on UO-31 renal, 76.1 µM in the test on HCC-2998 colon and 49.5 µM with SF-268 CNS.
As for `COc1ccc2cc1Oc1ccc(cc1)CC1c3cc(c(OC)cc3CCN1C)Oc1c3c(cc4c1C(C2)N(C)CC4)OCO3` (stereo unspecified), the TGI was found to be 23.7 µM in the test with SN12C renal; 21.1 µM with OVCAR-8 ovarian; 28.2 µM with SR leukemia; 4.17 µM in the test with K-562 leukemia; 25.8 µM with SW-620 colon; 30.1 µM in the test with UACC-62 melanoma. Besides, the TGI in the test on HCC-2998 colon was 24.2 µM; in the test on SF-268 CNS, 22.5 µM.
With `COC(=O)C(/C(=N/NC(N)=O)C(=O)Nc1ccc(C)cc1)c1nc2ccc([N+](=O)[O-])cc2[nH]c1=O` (stereo unspecified), the TGI in the test with SN12C renal, in the test on OVCAR-8 ovarian, in the test on SR leukemia, with K-562 leukemia, with SW-620 colon and with UACC-62 melanoma was > 100 µM each time. The TGI with HCC-2998 colon and in the test on SF-268 CNS was > 100 µM in each case.
For the molecule `COC(=O)CC(=O)C[P+](c1ccccc1)(c1ccccc1)c1ccccc1`, the TGI with UACC-257 melanoma, with SN12C renal, in the test on OVCAR-8 ovarian, in the test on SR leukemia, with K-562 leukemia and in the test with SW-620 colon was > 218 µM each time. Also, the TGI in the test with UACC-62 melanoma, in the test with HCC-2998 colon and with SF-268 CNS was > 218 µM throughout.
Turning to `OCc1ccc2[n+](c1)CCC1c3ccccc3NC21` (stereo unspecified), the TGI with UACC-257 melanoma, in the test with SN12C renal, in the test on OVCAR-8 ovarian, in the test on SR leukemia, in the test with K-562 leukemia and in the test on SW-620 colon was > 300 µM in each case. Further, the TGI in the test with UACC-62 melanoma, in the test with HCC-2998 colon and in the test with SF-268 CNS was > 300 µM each time.
Consider `COc1ccc2ccc3c(c2c1)CN1CCc2cc(OC)c(OC)cc2C1C3` (stereo unspecified), for which the TGI with UACC-257 melanoma, in the test with SN12C renal, with OVCAR-8 ovarian, with SR leukemia, with K-562 leukemia and in the test with SW-620 colon was > 100 µM throughout. The TGI in the test with UACC-62 melanoma, in the test with UO-31 renal and in the test on HCC-2998 colon was > 100 µM throughout.
